What was measured:
[1] = biological target: human CMV DNA polymerase UL54 (Human cytomegalovirus (strain AD169) (HHV-5) (Human herpesvirus 5), UniProt P08546); assay: CMV polymerase biochemical assay (molecular beacon-based)
Protocol: (§1) Both human CMV DNA polymerase UL54 and human HSV DNA polymerase UL30 were produced as N-terminal MBP fusion of the full length, wild type recombinant proteins in order to enhance soluble expression in insect cell expression system. The proteins were expressed in sf9 insect cells via baculovirus transduction and cells were harvested after 48 hours. The soluble proteins were purified using the standard Ni-IMAC purification strategy via the N-terminal hexa-Histidine tag, followed by heparin affinity chromatography. Both of the final MBP fusion proteins were more than 90% pure and the yield of UL54 was up to 1.8 mg per liter culture while UL30 was up to 15 mg per liter culture. All purification steps were performed on ice, with buffers chilled on ice and FPLC fraction collectors set at 6° C. […] UL30 protein was stored in buffer containing 20 mM HEPES, pH7.0, 420 mM NaCl, 20% glycerol, 6 mM Imidazole, and 0.8 mM DTT at−80° C.
(§2) DNA polymerase activity was measured using a molecular beacon-based assay, as described in Ma et. al.
(§3) 100 pM CMV polymerase or 625 pM HSV polymerase was added to a buffer containing 20 mM Tris, pH=7.5, 100 mM NaCl, 10 mM MgCl2, 0.01% Tween-20, 0.5 mM EDTA, 10% Sucrose and 1 mM DTT. The inhibitor was pre-incubated with the polymerase for 30 minutes at room temperature. Reactions were initiated by the addition of a mixture containing 1.25 uM dATP, 1.25 uM dCTP, 1.25 uM dTTP, 1.25 uM dGTP, 200 nM Primer B (5′-GAC GGG AAG-3′5′-GAC GGG AAG-3′) and 100 nM molecular beacon (5′-5,6-FAM-CCTCTCCGTGTCTTGTACTTCCCGTCAGAGAGG-BHQ1-3′). For human CMV polymerase the reactions were incubated for 60 minutes at room temperature. For HSV polymerase the reactions were incubated for 20 minutes at room temperature. The reactions were then read on a Perkin-Elmer EnVision 2101 reader (fluorescence) using an excitation of 480 nm and emission of 535 nm. 1050s were determined using an internal Novartis software (Helios).
as §3, with “nm.” for “nm. 1050s were determined using an internal Novartis software (Helios).”

[2] = tested on: Luciferase-encoding HCMV, AD169 strain; assay: CMV Luciferase assay (cellular herpesvirus replication); assay type: cell-based; conditions: Human betaherpesvirus 5, AD169, read-out: CMV-Luc Cellular EC50
Protocol: For all viral assays, 10 mM DMSO stock compound solutions were serially diluted in DMSO at 3.16 fold dilutions in 96-well clear round bottom plates. Compounds were then diluted in assay media at 1:20 and subsequently 10 μL of these dilutions were added to cells for final compound concentrations ranging either from 0.0159 μM to 50 μM in 0.5% DMSO/assay media, or from 0.00318 to 10 μM in 0.5% DMSO/assay media.
The assay uses a Luciferase-encoding HCMV. Luciferase is expressed under the control of a late viral gene (pp28) promoter in the AD169 strain, so that expression of the reporter is dependent on viral DNA replication. Compounds that affect any stage from viral entry to DNA replication result in a change in luciferase levels.
Viral replication in the presence or absence of compounds was measured by luciferase activity according to the following procedure: Neo-natal normal human dermal fibroblast cells (NN-NHDF, from ATCC cat #201-010) were seeded at 9,000 cells/well in 96-well white solid bottom plate at 80 uL/well in assay media: 2% FBS, 4 mM GlutaMax® (Invitrogen cat #35050) in DMEM/high glucose/no glutamine/no phenol red media (Invitrogen cat #31053). After 2 hrs at 37° C., 10 uL of compound diluted in assay media or 5% DMSO (final 0.5% DMSO/well) was added and the plates returned to 37° C. One hour later, 10 uL of virus diluted in assay media was added at a final Multiplicity of infection (MOI) of 1. Plates were incubated at 37° C. for 72 hrs. At 72 hours post-infection (hpi), plates were equilibrated to room temperature. After 25 min, 100 uL Renilla-Glo® Luciferase Assay Reagent (Promega cat # E2750) was added to each well and incubated for 10 min. Plates were covered to protect from light. Luminescence was measured on the PHERAstar FS®.
The following controls were included in the data analysis: No virus, no compound (0.5% DMSO)=IC (maximal inhibitory control); Virus, no compound (0.5% DMSO)=NC (neutral control). Data were analyzed using an internal Novartis software (Helios). The means of the controls (NC, IC) were used to normalize the results to a % scale using the formula: % Control=100−(100*(Sample value−NC)/(IC−NC)).
For each compound, the software derived an EC50 using a 4-parameter logistical model.

[3] = biological target: human HSV DNA polymerase UL30 (Human herpesvirus 1 (strain 17) (HHV-1) (Human herpes simplex virus 1), UniProt P04293); assay: HSV polymerase biochemical assay (molecular beacon-based)
Protocol: as §1, §2, §3
as §3, with “nm.” for “nm. 1050s were determined using an internal Novartis software (Helios).”

SMILES | IC50 [1] [nM] | EC50 [2] [nM] | IC50 [3] [nM]
CC1(CS(=O)(=O)C2(CN3CCn4c(ccc(C(=O)NCc5ccc(C#N)c(F)c5)c4=O)C3=O)CC2)COC1 [Example 103-3] | 10.8 | 791 | 170
O=C(NCc1ccc(Cl)cc1)c1ccc2n(c1=O)CCN(CC1(S(=O)(=O)C3CCNC3)CC1)C2=O (centres unmarked) [Example 80-1, N-(4-chlorobenzyl)-1,6-dioxo-2-((1-(pyrrolidin-3-ylsulfonyl)cyclopropyl)methyl)-2,3,4,6-tetrahydro-1H-pyrido[1,2-a]pyrazine-7-carboxamide] | 3.4 | 216 | 97.6
O=C(NCc1ccc(Cl)cc1)c1ccc2n(c1=O)CCN(CC1(S(=O)(=O)CC3CC3)CC1)C2=O [Example 107-1, N-(4-chlorobenzyl)-2-((1-((cyclopropylmethyl)sulfonyl)cyclopropyl)methyl)-1,6-dioxo-2,3,4,6-tetrahydro-1H-pyrido[1,2-a]pyrazine-7-carboxamide] | 1.9 | 111 | 61.6
N#Cc1ccc(CNC(=O)c2ccc3n(c2=O)CCN(CC2(S(=O)(=O)C4CC4(F)F)CC2)C3=O)cc1F (centres unmarked) [Example 98-2] | 1.2 | 41 | 57.6
CS(=O)(=O)NCCN1CCn2c(ccc(C(=O)NCc3ccc(Cl)cc3)c2=O)C1=O [Example 62, N-(4-chlorobenzyl)-2-(2-(methylsulfonamido)ethyl)-1,6-dioxo-2,3,4,6-tetrahydro-1H-pyrido[1,2-a]pyrazine-7-carboxamide] | 657 | 19900 | 4300
O=C(NCc1ccc(Cl)cc1)c1ccc2n(c1=O)CCN(CC1(N3CCCC3=O)CC1)C2=O [Example 201, N-(4-chlorobenzyl)-1,6-dioxo-2-((1-(2-oxopyrrolidin-1-yl)cyclopropyl)methyl)-1,3,4,6-tetrahydro-2H-pyrido[1,2-a]pyrazine-7-carboxamide] | 182 | 4810 | 4060
COCC1(S(=O)(=O)C2(CN3CCn4c(ccc(C(=O)NCc5ccc(C#N)cc5)c4=O)C3=O)CC2)CC1 [Example 15] | 0.7 | 30.2 | 26
CC(=O)N(C)C1(CN2CCn3c(ccc(C(=O)NCc4ccc(Cl)cc4)c3=O)C2=O)CC1 [Example 205] | 249 | 3760 | 8590
O=C(NCc1ccc(Cl)cc1)c1ccc2n(c1=O)CCN(CC1(S(=O)(=O)C3CC3)CC1)C2=O [Example 2] | 0.2 | 8.1 | 15.5
N#Cc1ccc(CNC(=O)c2ccc3n(c2=O)CCN(CC2(S(=O)(=O)[C@@H]4CC4(F)F)CC2)C3=O)cc1F (single isomer, unassigned) [Example 101-2] | 0.6 | 29.6 | 32.9
O=C(NCc1ccc(Cl)cc1)c1ccc2n(c1=O)CCN(C1CCS(=O)(=O)C1)C2=O (centres unmarked) [Example 53-1] | 729 | 11200 | 4440
CN1CCC(S(=O)(=O)C2(CN3CCn4c(ccc(C(=O)NCc5ccc(C#N)c(F)c5)c4=O)C3=O)CC2)C1 (centres unmarked) [Example 81-2] | 11.3 | 486 | 204
CC(CN1CCn2c(ccc(C(=O)NCc3ccc(Cl)cc3)c2=O)C1=O)S(=O)(=O)C1CC1 (centres unmarked) [Example 191] | 76.5 | 3460 | 5460
CS(=O)(=O)CCCN1CCn2c(c(CF)cc(C(=O)NCc3ccc(Cl)cc3)c2=O)C1=O [Example 142] | 351 | – | 2160
CCN1CCn2c(ccc(C(=O)NCc3ccc(Cl)cc3)c2=O)C1=O [Example 113, N-(4-chlorobenzyl)-2-ethyl-1,6-dioxo-2,3,4,6-tetrahydro-1H-pyrido[1,2-a]pyrazine-7-carboxamide] | 3130 | – | 23600
CN(CCN1CCn2c(c(Br)cc(C(=O)NCc3ccc(Cl)cc3)c2=O)C1=O)S(C)(=O)=O [Example 122, 9-bromo-N-(4-chlorobenzyl)-2-(2-(N-methylmethylsulfonamido)ethyl)-1,6-dioxo-1,3,4,6-tetrahydro-2H-pyrido[1,2-a]pyrazine-7-carboxamide] | 350 | – | 5050
CN1CCn2c(ccc(C(=O)NCc3ccc(Cl)cc3)c2=O)C1=O [Example 114, N-(4-chlorobenzyl)-2-methyl-1,6-dioxo-2,3,4,6-tetrahydro-1H-pyrido[1,2-a]pyrazine-7-carboxamide] | 3990 | – | 25000
CS(=O)(=O)CCCN1CCn2c(c(Br)cc(C(=O)NCc3ccc(Cl)cc3)c2=O)C1=O [Example 123, 9-bromo-N-(4-chlorobenzyl)-2-(3-(methylsulfonyl)propyl)-1,6-dioxo-1,3,4,6-tetrahydro-2H-pyrido[1,2-a]pyrazine-7-carboxamide] | 373 | – | 1890
COC1(S(=O)(=O)C2(CN3CCn4c(ccc(C(=O)NCc5ccc(Cl)cc5)c4=O)C3=O)CC2)CC1 [Example 188] | 0.8 | 11.6 | –
CC(CCO)S(=O)(=O)C1(CN2CCn3c(ccc(C(=O)NCc4ccc(Cl)cc4)c3=O)C2=O)CC1 (centres unmarked) [Example 4, N-(4-chlorobenzyl)-2-((1-((4-hydroxybutan-2-yl)sulfonyl)cyclopropyl)methyl)-1,6-dioxo-2,3,4,6-tetrahydro-1H-pyrido[1,2-a]pyrazine-7-carboxamide] | 0.4 | 40.4 | –
Cc1cc(C(=O)NCc2ccc(Cl)cc2)c(=O)n2c1C(=O)N(CC1(N3CCCS3(=O)=O)CC1)CC2 [Example 150] | – | 67.7 | –
CS(=O)(=O)CCN1CCn2c(ccc(C(=O)NCc3ccc(Cl)cc3)c2=O)C1=O [Example 51, N-(4-chlorobenzyl)-2-(2-(methylsulfonyl)ethyl)-1,6-dioxo-2,3,4,6-tetrahydro-1H-pyrido[1,2-a]pyrazine-7-carboxamide] | – | 1870 | –
N#CCS(=O)(=O)C1(CN2CCn3c(ccc(C(=O)NCc4ccc(Cl)cc4)c3=O)C2=O)CC1 [Example 108-1, N-(4-Chlorobenzyl)-2-((1-((cyanomethyl)sulfonyl)cyclopropyl)methyl)-1,6-dioxo-2,3,4,6-tetrahydro-1H-pyrido[1,2-a]pyrazine-7-carboxamide] | – | 228 | –
